This note sets out measurements from PMC10200060, “Inhibition of DAMP actions in the tumoral microenvironment using lactoferrin-glycyrrhizin conjugate for glioblastoma therapy” (Biomaterials Research, 2023).

Test [1] deals with U87MG. Briefly: HMGB1-mediated GBM cell proliferation (CCK-8). Format: cell-based, human. How it is done: (§1) Cell viability was determined using a cell counting kit-8 (CCK-8). U87MG and HUVECs (seeding density: 0.75 × 10^4 cells per well) in 96-well culture plates were treated with GL, Lf, or Lf-GL (25 to 200 × 10^–6 M of GL equivalent concentration) and were incubated for different periods of time (24, 48, and 72 h). After washing with PBS, they were treated with a cell culture medium containing a CCK-8 assay kit (Abbkine) and were incubated at 37 °C and 5% CO2 for 2 h. Then, absorbance was measured at 450 nm in a micro-plate reader (VLBL00D0, Thermo Fisher Scientific). Results were quantified using Sigma Plot (Systat Software, USA). To determine the effect of extracellular HMGB1 in GBM and endothelial cell proliferation, U87MG and HUVECs were seeded in 96-well culture plates (seeding density: 0.75 × 10^4 cells per well) and GL, Lf, or Lf-GL (50 × 10^–6 M GL equivalent concentration) were added to cells with or without HMGB1 protein (U87MG: 0.1 μg mL^−1, and HUVEC: 1 μg mL^−1). Cells were incubated for different periods of time (24, 48, and 72 h).

In test [2] the test system is U87MG. The test can be described thus: Wound-healing scratch (cell migration) assay. Format: cell-based, human. The note with it: HMGB1 0.1 μg mL^−1, 24 h. How it is done: A wound-healing scratch assay was performed in U87MG to evaluate the effect of GL, Lf and Lf-GL treatment on the cancer cell migration. Cells were seeded in 100 mm-cell culture dishes, 2.0 × 10^6 cells per dish. After the cells were grown to 80% confluence, a scratch was made through the cell monolayer with a 200 μL pipet tip, and it was washed with PBS. Photographs (4 ×) were taken in each of three different scratch areas, and their location on the dish was marked. GL (50 × 10^–6 M), Lf (5 × 10^–6 M) or Lf-GL (1 × 10^–6 M) dissolved in serum-free medium were added to cells with or without HMGB1 protein (0.1 μg mL^−1). Then, cells were incubated for 24 h, and the same areas were re-photographed. Migration distances were examined using the scale bar.

Test [3] has as its system HUVEC. Briefly: HMGB1-mediated HUVEC proliferation (CCK-8). The class given is cell-based, human. How it is done: as §1
Test [4] concerns HUVEC. The test can be described thus: Capillary tube formation assay. The class given is cell-based, human. The note with it: HMGB1 (+) control vs HMGB1 (-) control, 24 h. How it is done: A 24-well plate was coated with of Matrigel® (200 μL, Corning, NY, USA) and was incubated for 30 min in 37℃ incubators. HUVECs were seeded upon a coated Matrigel® 24-well plate (seeding density: 5.0 × 10^4 cells per well). Subsequently, cells were treated with GL (50 × 10^–6 M), Lf (5 × 10^–6 M) or Lf-GL (1 × 10^–6 M) and incubated for 24 h. Then, Calcein AM was added to each well, and the formation of tubes was observed using fluorescence microscopy. These tubes were quantified using Image J.

Test [5] deals with ERK phosphorylation. The test can be described thus: Western blot of phospho-ERK/ERK in HUVEC. The class given is cell-based, human. The note with it: 24 h of treatment with HMGB1. How it is done: Total cellular protein concentration was determined using a BCA Protein Assay Kit (Pierce, Rockford, IL, USA). Equal amounts of protein from cell lysates were loaded onto a 12% sodium dodecyl sulfate–polyacrylamide gel. After electrophoresis, proteins were transferred to polyvinylidene fluoride membranes blocked with 5% bovine serum albumin for 1 h at room temperature and were diluted 1:500 with the indicated primary antibodies (rabbit anti-ERK1/2, anti-phospho-ERK1 and β-actin antibodies [Cell Signaling Technology, INC.]). Then, the membrane was washed 3 times for 15 min with tris-buffered saline containing Tween 20 and was incubated with HRP-conjugated secondary antibody for 1 h at room temperature. After washing three times for another 15 min with Tris-buffered saline with Tween 20, immune complexes were detected with an enriched chemiluminescent reagent (EZ-Western Lumi Femto, DoGen, South Korea) and staining was quantified by densitometry analysis using an Alpha Imager 2200.
(In general: A western blot detects proteins with antibodies after separation by electrophoresis.)

The subject of test [6] is rat aortic rings. Briefly: Aorta ring assay (ex vivo). The note with it: VEGF 25 ng mL^−1 positive control, 14 days. How it is done:
An aorta ring assay was conducted to confirm the anti-angiogenesis effect of Lf-GL ex vivo. A 48-well plate was coated with of Matrigel® (100 μL) and was incubated for 30 min or more in 37℃ incubators. In the meantime, thoracic aortas of 7-week-old male SD rats were excised. Then, the fat layer and outer membrane were removed, and rings approximately 1 mm in length were prepared. The prepared aortic rings were seeded on a coated Matrigel® of 48-well plate and were covered with Matrigel®. (100 μL) Subsequently, the aortic ring was treated with a control (with or without 25 ng mL^−1 of VEGF) or different concentrations of Lf-GL complex. Medium was changed once every two days. Fourteen days after treatment, optical images of sprouting microvessels were obtained using microscopy magnification (× 40 or × 100). Sprouting microvessel area was quantified using Image J and Sigma Plot.
Fig. S14. Significant inhibitory effect of Lf-GL in aortic ring angiogenesis. Optical images of vessel regression in aortic ring with Lf-GL treatment. Aortic ring assay was carried out in 48-well plate coated with Matrigel. VEGF-non treated control represents that aortic ring incubated with normal medium. VEGF-treated control represents that aortic ring incubated with 25 ng mL^-1 VEGF-conditioned medium. […]

Turning to “HMGB1: High-mobility group box-1 protein added to cells as stimulus”, the “Tumor growth compared to controls not treated with HMGB1” value was determined as 110.7 ± 8.2% in test [1] (HMGB1 0.1 μg mL^−1, day 1); 133.4 ± 1.3% in test [1] (HMGB1 0.1 μg mL^−1, day 2); 140.7 ± 5.2% in test [1] (HMGB1 0.1 μg mL^−1, day 3). Further, the “Migration distance more than HMGB1-nontreated cell” value in test [2] amounted to 121.3 ± 42.8 μm. In addition, the “Angiogenic potential (viability) of HUVEC vs control” value in test [3] (HMGB1 1 μg mL^−1, day 1) is reported as 108.2 ± 7.9%; in test [3] (HMGB1 1 μg mL^−1, day 2), 137.9 ± 12.3%; in test [3] (HMGB1 1 μg mL^−1, day 3), 169.8 ± 18.1%. For the same substance, the “Increase of newly generated micro-vessels (tube number)” value in test [4] is given as 21.0 ± 2.1%. Further, the “Increase of p-ERK level compared to non-treatment” value in test [5] amounted to 2.3 times.
VEGF [reference compound]: the “Increase of outgrowth of endothelial tubules” value in test [6] stood at 51.1 ± 105.2%.
